How the values were obtained:
NCI-H522 = assay: NCI60 screen, Sulforhodamine B assay; format: cell-based, human; conditions: 10 μM phenoxybenzamine
Procedure: (§1) The results of these studies were included in an application for the screening of PBZ in the National Cancer Institute NCI60 screening program (https://dtp.cancer.gov/discovery_development/nci-60); they measured its effects on growth in cultures of 60 human tumors. This initial screen was conducted at only one drug concentration, 10 μM. We supplied the United States Pharmacopeial reference standard of PBZ-hydrochloride in powder form. The NCI60 standard procedure for dissolution of a synthetic molecule like PBZ involved initial dilution in 9:1 dimethyl sulfoxide (DMSO): glycerol at a concentration of 4 mM; the solution was then diluted 1:200 with complete culture medium (RPMI 1640 medium containing 5% fetal calf serum (FCS), 2 mM L-glutamine and 50 μg/ml gentamicin to give a final concentration of 20 μM; 100 μl of the drug-medium mixture was added to 100 μl of the cell cultures already in complete medium. The microtiter plates were incubated for 48 hr at 37°C, 5% CO2, 95% air, and 100% relative humidity (see S1 Appendix for further details).
(§2) The reason for the lack of activity after dissolution in DMSO has not been pursued further, but DMSO was eliminated in all subsequent assay systems.

OVCAR-8 = assay: NCI60 screen, Sulforhodamine B assay; format: cell-based, human; conditions: 10 μM phenoxybenzamine
Procedure: as §1, §2

PC-3 = assay: NCI60 screen, Sulforhodamine B assay; format: cell-based, human; conditions: 10 μM phenoxybenzamine
Procedure: as §1, §2

RPMI 8226 = assay: NCI60 screen, Sulforhodamine B assay; format: cell-based, human; conditions: 10 μM phenoxybenzamine
Procedure: as §1, §2

T47D = assay: NCI60 screen, Sulforhodamine B assay; format: cell-based, human; conditions: 10 μM phenoxybenzamine
Procedure: as §1, §2

UACC-257 = assay: NCI60 screen, Sulforhodamine B assay; format: cell-based, human; conditions: 10 μM phenoxybenzamine
Procedure: as §1, §2

MEXF UACC-257 = assay: Oncotest CellTiter-Blue cell viability assay, 72 hours; format: cell-based, human
Procedure: Further studies with varying drug concentrations on selected human cell lines, in most cases those studied in the NCI60 screen, were conducted by Oncotest GmbH laboratories, Freiburg, Germany; Oncotest is a division of Charles River Laboratories. The dissolution procedure for PBZ and the cell culture […] was 72 hours; anti-tumor activity was determined with the CellTiter-Blue® Cell Viability Assay, Promega, Mannheim, Germany. The 50% Inhibitory (IC50) concentrations were determined. The results are the average of duplicate assays. Paclitaxel was included as a reference compound to confirm the integrity of the assays. See S1 Appendix for further details.
“Cell lines were routinely passaged once or twice weekly and maintained in culture for up to 20 passages. Cells were grown at 37°C in a humidified atmosphere with 5% CO2 in RPMI 1640 medium (25 mM HEPES, with L-glutamine, #FG1385, Biochrom, Berlin, Germany) supplemented with 10% (v/v) fetal calf serum (Sigma, Taufkirchen, Germany) and 0.1 mg/mL gentamicin (Life Technologies, Karlsruhe, Germany).”

HDAC1 = target: T1, HDAC1 (Homo sapiens, UniProt Q13547); assay: Fluorogenic HDAC deacetylase assay (BPS Bioscience); format: biochemical; conditions: read-out: % inhibition @ 10 uM
T1 construct: purchased BPS Bioscience 50051
T1 sequence (Q13547 whole entry): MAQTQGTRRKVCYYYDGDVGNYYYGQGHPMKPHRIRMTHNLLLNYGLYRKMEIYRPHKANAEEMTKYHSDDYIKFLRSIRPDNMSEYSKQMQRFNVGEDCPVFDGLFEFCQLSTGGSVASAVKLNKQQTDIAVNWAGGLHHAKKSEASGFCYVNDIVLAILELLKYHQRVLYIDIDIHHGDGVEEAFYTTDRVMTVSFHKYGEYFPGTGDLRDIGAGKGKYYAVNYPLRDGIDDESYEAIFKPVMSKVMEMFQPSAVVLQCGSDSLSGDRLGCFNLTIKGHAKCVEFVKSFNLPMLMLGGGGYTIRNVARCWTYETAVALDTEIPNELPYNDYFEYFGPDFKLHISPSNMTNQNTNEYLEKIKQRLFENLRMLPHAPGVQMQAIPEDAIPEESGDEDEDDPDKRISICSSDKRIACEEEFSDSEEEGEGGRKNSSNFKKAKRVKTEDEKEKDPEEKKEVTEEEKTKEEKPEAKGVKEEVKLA

HDAC2 = target: T2, HDAC2 (Homo sapiens, UniProt Q92769); assay: biochemical; conditions: read-out: % inhibition @ 10 uM
T2 construct: purchased BPS Bioscience 50002
T2 sequence (Q92769 whole entry): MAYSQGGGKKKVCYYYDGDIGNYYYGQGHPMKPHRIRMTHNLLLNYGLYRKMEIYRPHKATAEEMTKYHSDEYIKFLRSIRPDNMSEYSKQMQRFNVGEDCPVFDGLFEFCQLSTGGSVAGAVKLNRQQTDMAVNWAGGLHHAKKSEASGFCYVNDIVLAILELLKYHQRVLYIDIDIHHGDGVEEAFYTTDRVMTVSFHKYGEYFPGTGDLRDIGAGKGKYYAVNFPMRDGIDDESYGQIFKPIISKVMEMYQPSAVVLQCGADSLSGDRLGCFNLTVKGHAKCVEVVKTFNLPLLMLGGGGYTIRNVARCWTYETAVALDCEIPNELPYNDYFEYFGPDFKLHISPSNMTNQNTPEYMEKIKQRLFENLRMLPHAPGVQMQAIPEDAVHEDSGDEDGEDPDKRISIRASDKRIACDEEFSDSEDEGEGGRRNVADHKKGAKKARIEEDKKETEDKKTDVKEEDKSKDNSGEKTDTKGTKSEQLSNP

HDAC5 = target: T3, HDAC5 (Homo sapiens, UniProt Q9UQL6); assay: Fluorogenic HDAC deacetylase assay (BPS Bioscience); format: biochemical
T3 construct: purchased BPS Bioscience 50005
T3 sequence (Q9UQL6 656-1122 limits assumed): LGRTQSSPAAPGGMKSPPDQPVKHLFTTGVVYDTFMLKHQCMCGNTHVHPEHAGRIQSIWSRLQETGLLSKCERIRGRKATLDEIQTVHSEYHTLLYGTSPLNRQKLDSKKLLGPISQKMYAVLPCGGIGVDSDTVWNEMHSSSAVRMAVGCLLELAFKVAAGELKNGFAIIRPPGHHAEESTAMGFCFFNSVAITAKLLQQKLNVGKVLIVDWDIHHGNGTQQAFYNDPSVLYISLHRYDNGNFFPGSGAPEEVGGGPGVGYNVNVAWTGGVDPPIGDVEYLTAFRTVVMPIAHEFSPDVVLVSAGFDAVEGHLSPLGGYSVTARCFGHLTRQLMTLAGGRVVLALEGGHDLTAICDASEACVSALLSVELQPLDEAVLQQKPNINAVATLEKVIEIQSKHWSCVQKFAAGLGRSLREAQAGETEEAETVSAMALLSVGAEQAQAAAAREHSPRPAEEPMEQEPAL

HDAC6 = target: T4, HDAC6 (Homo sapiens, UniProt Q9UBN7); assay: as above; format: biochemical
T4 construct: purchased BPS Bioscience 50006

HDAC7 = target: T5, HDAC7 (Homo sapiens, UniProt Q8WUI4); assay: as above; format: biochemical
T5 construct: purchased BPS Bioscience 50007
T5 sequence (Q8WUI4 518-952 limits assumed): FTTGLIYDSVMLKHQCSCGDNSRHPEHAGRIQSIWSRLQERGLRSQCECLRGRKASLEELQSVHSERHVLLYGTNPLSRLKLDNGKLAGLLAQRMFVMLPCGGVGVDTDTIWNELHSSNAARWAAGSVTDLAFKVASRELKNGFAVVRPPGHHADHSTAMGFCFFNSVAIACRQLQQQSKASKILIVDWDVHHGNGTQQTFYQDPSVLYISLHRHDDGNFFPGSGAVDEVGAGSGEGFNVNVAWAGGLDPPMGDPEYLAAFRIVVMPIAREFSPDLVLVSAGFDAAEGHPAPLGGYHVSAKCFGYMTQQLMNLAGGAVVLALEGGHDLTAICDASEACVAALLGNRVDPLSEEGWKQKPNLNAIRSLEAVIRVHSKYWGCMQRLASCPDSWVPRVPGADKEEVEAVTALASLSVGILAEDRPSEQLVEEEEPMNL

HDAC8 = target: T6, HDAC8 (Homo sapiens, UniProt Q9BY41); assay: as above; format: biochemical
T6 construct: purchased BPS Bioscience 50008
T6 sequence (Q9BY41 whole entry): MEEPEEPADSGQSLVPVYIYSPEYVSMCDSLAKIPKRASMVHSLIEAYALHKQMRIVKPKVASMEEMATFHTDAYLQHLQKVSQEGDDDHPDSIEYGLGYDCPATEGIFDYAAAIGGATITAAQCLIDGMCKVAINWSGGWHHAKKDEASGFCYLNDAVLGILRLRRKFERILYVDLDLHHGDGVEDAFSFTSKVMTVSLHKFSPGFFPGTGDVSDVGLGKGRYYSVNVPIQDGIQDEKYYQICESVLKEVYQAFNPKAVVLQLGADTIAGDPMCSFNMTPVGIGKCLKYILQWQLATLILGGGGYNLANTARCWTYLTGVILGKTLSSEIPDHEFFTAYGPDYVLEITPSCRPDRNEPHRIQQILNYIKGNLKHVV

HDAC9 = target: T7, HDAC9 (Homo sapiens, UniProt Q9UKV0); assay: as above; format: biochemical
T7 construct: purchased BPS Bioscience 50009
T7 sequence (Q9UKV0 1-1066 isoform Q9UKV0-5): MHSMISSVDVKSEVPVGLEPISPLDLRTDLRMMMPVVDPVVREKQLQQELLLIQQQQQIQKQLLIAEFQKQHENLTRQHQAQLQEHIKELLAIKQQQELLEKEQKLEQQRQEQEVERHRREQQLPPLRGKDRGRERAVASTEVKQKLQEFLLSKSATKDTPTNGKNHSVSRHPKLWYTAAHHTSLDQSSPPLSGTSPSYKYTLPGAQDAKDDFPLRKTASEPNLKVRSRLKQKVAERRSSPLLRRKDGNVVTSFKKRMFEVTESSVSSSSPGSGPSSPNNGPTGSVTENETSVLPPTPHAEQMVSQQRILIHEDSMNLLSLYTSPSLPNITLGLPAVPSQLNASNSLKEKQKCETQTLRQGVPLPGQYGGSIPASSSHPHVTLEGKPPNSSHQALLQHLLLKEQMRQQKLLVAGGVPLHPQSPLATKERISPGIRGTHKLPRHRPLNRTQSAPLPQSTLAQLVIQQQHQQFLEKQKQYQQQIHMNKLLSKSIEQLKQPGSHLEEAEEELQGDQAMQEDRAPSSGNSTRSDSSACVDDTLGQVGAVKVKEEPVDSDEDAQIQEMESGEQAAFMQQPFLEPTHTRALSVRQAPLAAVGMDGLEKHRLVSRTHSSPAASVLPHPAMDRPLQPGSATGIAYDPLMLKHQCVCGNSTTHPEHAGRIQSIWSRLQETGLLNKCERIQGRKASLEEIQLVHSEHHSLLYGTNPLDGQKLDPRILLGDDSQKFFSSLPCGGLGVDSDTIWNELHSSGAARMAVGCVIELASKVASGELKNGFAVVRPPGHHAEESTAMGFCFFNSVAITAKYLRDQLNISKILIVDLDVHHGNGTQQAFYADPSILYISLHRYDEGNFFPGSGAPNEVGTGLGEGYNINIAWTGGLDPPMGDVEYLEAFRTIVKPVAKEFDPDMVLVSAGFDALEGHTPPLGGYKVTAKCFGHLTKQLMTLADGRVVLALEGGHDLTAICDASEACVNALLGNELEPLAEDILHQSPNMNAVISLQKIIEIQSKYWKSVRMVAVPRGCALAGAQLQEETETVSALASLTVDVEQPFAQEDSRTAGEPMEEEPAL

HDAC10 = target: T8, HDAC10 (Homo sapiens, UniProt Q969S8); assay: as above; format: biochemical; conditions: read-out: % inhibition @ 10 uM
T8 construct: purchased BPS Bioscience 50060
T8 sequence (Q969S8 whole entry): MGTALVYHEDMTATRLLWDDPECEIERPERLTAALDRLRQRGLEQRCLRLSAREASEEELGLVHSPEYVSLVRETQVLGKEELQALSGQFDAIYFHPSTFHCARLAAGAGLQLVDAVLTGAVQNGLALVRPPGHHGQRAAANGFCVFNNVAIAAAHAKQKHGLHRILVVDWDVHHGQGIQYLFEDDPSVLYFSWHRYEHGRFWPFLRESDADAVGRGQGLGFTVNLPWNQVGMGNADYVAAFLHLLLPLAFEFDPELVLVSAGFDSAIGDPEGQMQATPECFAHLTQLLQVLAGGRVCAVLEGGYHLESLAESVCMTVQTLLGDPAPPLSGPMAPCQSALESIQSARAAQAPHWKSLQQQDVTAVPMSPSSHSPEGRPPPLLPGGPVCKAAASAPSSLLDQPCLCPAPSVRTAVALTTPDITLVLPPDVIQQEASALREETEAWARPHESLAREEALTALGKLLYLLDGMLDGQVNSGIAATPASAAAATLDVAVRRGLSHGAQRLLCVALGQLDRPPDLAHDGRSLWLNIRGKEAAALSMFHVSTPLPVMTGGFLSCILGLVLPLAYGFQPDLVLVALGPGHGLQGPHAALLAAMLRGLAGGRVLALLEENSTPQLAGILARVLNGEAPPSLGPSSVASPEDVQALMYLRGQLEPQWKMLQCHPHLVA

HDAC11 = target: T9, HDAC11 (Homo sapiens, UniProt Q96DB2); assay: as above; format: biochemical; conditions: read-out: % inhibition @ 10 uM
T9 construct: purchased BPS Bioscience 50011
T9 sequence (Q96DB2 whole entry): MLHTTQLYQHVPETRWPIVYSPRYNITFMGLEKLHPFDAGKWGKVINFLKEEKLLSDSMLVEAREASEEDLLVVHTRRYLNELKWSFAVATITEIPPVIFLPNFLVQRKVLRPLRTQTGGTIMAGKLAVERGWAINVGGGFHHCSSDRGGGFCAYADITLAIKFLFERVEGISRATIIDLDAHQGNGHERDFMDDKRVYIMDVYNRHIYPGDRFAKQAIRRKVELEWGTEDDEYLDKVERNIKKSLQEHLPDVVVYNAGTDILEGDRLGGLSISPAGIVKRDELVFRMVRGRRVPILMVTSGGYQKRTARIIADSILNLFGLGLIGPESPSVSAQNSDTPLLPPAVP

[1] = test system: cultures of 60 human tumors; assay: NCI60 human tumor culture screen, initial study with DMSO dissolution; format: cell-based; conditions: initially dissolved in DMSO
Procedure: as §1

[2] = test system: pulmonary arterial hypertension in a rat model; parameters: method as in earlier work; conditions: daily injections following monocrotaline; after 4 weeks of treatment; cited from earlier work
CFA-affected animals = test system: CFA-affected animals; parameters: method as in PMID 20846436; conditions: cited from earlier work
[3] = test system: implanted tumors (malignant glioma); parameters: method as in PMID 26409450; conditions: direct injection into implanted tumors; cited from earlier work
[4] = MEXF UACC-257, 1% FCS, study P495C
[5] = MEXF UACC-257, 10% FCS, study P495A

SMILES: CC(COc1ccccc1)N(CCCl)Cc1ccccc1 (stereo not drawn) [PBZ, phenoxybenzamine]
- Percent cell growth in NCI60 screen with 5% FCS (48 hr incubation) (NCI-H522): 73%
- Percent cell growth in NCI60 screen with 5% FCS (48 hr incubation) (OVCAR-8): 53%
- Percent cell growth in NCI60 screen with 5% FCS (48 hr incubation) (PC-3): 63%
- Percent cell growth in NCI60 screen with 5% FCS (48 hr incubation) (RPMI 8226): 60%
- Percent cell growth in NCI60 screen with 5% FCS (48 hr incubation) (T47D): 60%
- Percent cell growth in NCI60 screen with 5% FCS (48 hr incubation) (UACC-257): 76%
- Percent cell growth in Oncotest screen with 10% FCS (72 hr incubation) (MEXF UACC-257; 10 μM phenoxybenzamine, UACC-257): 107%
- IC50 (MEXF UACC-257; Homo sapiens, MEXF UACC-257 Melanoma, 1% FCS): 49.8 µM
- Test/Control (%) at Drug Concentration [uM] 1,0E+00 (MEXF UACC-257; [4]): 101%
- Test/Control (%) at Drug Concentration [uM] 1,0E+01 (MEXF UACC-257; [4]): 107%
- Test/Control (%) at Drug Concentration [uM] 1,0E+02 (MEXF UACC-257; [4]): 41%
- Test/Control (%) at Drug Concentration [uM] 3,2E+00 (MEXF UACC-257; [4]): 106%
- Test/Control (%) at Drug Concentration [uM] 3,2E+01 (MEXF UACC-257; [4]): 77%
- Test/Control (%) at Drug Concentration [uM] 1,0E+00 (MEXF UACC-257; [5]): 101%
- Test/Control (%) at Drug Concentration [uM] 1,0E+01 (MEXF UACC-257; [5]): 107%
- Test/Control (%) at Drug Concentration [uM] 1,0E+02 (MEXF UACC-257; [5]): 68%
- Test/Control (%) at Drug Concentration [uM] 1,0E-01 (MEXF UACC-257; [5]): 101%
- Test/Control (%) at Drug Concentration [uM] 1,0E-02 (MEXF UACC-257; [5]): 101%
- Test/Control (%) at Drug Concentration [uM] 3,2E+00 (MEXF UACC-257; [5]): 109%
- Test/Control (%) at Drug Concentration [uM] 3,2E+01 (MEXF UACC-257; [5]): 106%
- Test/Control (%) at Drug Concentration [uM] 3,2E-01 (MEXF UACC-257; [5]): 104%
- Test/Control (%) at Drug Concentration [uM] 3,2E-02 (MEXF UACC-257; [5]): 113%
- Test/Control (%) at Drug Concentration [uM] 3,2E-03 (MEXF UACC-257; [5]): 103%
- inhibition at 10 µM (HDAC1): 16%
- inhibition at 10 µM (HDAC2): 0%
- IC50 (HDAC5): 9.8 µM
- IC50 (HDAC6): 0.59 µM
- % inhibition @ 10 uM (HDAC7; HDAC7, 10 µM): ~30%
- inhibition at 10 µM (HDAC7; read-out: % inhibition @ 10 uM, HDAC7): 34%
- % inhibition @ 10 uM (HDAC8; HDAC8, 10 µM): ~30%
- inhibition at 10 µM (HDAC8; read-out: % inhibition @ 10 uM, HDAC8): 34%
- IC50 (HDAC9): 5.3 µM
- inhibition at 10 µM (HDAC10): 0%
- inhibition at 10 µM (HDAC11): 0%
- biological effect in NCI60 screen [1]: essentially no biological effect
- decrease in right-ventricular hypertrophy [2]: 69%
- inhibition in the increase in medial thickening of pulmonary arteries [2]: 80%
- reversing the heightened pain sensitivity of the CFA-affected animals (CFA-affected animals): equipotent with the nonsteroidal anti-inflammatory drug, naproxen
- expansion of tumor volume in vivo [3]: marked reduction in expansion of tumor volume

Source: publication PMC5999115, “Anti-tumor activity of phenoxybenzamine and its inhibition of histone deacetylases” (PLoS ONE, 2018)
